Biological target: T1, KIT V559D T670I (Homo sapiens, UniProt P10721, T670I/V559D)
T1 construct: purchased Thermo Fisher Scientific (Life Technologies) SelectScreen
Assay: SelectScreen LanthaScreen
Format: binding
Conditions: read-out: % displacement
Method in brief: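 NU5455 was profiled across the SelectScreen Broad panel of kinase activity and binding assays. Z'LYTE reactions such as CSF1R ran at apparent Km ATP, while the Adapta CAMK1 assay used ATP listed as 10. Values are given as percent.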

T1 sequence (P10721 26-976 V559D/T670I): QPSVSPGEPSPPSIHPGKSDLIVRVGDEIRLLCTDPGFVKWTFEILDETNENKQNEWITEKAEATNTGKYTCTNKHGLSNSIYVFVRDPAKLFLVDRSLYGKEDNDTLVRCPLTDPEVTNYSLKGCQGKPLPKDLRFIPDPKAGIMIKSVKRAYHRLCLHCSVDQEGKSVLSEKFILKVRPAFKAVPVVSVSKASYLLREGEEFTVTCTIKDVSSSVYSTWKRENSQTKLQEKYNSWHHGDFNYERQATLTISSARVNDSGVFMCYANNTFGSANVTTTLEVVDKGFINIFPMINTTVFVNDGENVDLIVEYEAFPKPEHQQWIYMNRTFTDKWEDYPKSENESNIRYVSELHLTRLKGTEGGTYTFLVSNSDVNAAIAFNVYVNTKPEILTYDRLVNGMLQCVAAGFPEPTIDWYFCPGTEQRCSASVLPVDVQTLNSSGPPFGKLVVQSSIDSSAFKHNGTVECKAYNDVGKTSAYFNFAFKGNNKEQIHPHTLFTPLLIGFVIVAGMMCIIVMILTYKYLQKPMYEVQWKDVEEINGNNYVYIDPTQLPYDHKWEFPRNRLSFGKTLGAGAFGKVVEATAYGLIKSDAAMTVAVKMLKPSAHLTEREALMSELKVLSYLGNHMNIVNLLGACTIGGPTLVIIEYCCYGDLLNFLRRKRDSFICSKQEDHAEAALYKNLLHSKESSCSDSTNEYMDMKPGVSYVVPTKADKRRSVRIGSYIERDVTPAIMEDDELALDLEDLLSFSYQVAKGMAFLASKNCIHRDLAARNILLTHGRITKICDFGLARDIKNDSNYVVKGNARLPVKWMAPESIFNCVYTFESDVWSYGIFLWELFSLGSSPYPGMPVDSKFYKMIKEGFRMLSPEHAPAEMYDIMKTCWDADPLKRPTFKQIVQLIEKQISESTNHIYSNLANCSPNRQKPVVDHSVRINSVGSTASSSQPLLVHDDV

CN(C(=O)CN1CCOCC1)c1ccc2sc3c(-c4cccc5c(=O)cc(N6CC7CCC(C6)O7)oc45)cccc3c2c1 [NU5455]
inhibition at 1 µM: 3.1%
